Like-named read-outs stand apart in the source and are kept apart here.
Tests used:
[1] = Parallel Artificial Membrane Permeability Assay (PAMPA) at pH 6.8; type: physicochemical
Summary of the method: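 Reported as log Pe, membrane permeability was determined by parallel artificial membrane assay at pH 6.8 per Wohnsland–Faller.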

mTOR = molecular target: T1, mTOR (Homo sapiens, UniProt P42345); assay: Biochemical assay for m-TOR by TR-FRET
T1 construct: purchased Invitrogen Corporation (Carlsbad/Calif., USA) PV4753
T1 sequence (P42345 1360-2549 limits assumed): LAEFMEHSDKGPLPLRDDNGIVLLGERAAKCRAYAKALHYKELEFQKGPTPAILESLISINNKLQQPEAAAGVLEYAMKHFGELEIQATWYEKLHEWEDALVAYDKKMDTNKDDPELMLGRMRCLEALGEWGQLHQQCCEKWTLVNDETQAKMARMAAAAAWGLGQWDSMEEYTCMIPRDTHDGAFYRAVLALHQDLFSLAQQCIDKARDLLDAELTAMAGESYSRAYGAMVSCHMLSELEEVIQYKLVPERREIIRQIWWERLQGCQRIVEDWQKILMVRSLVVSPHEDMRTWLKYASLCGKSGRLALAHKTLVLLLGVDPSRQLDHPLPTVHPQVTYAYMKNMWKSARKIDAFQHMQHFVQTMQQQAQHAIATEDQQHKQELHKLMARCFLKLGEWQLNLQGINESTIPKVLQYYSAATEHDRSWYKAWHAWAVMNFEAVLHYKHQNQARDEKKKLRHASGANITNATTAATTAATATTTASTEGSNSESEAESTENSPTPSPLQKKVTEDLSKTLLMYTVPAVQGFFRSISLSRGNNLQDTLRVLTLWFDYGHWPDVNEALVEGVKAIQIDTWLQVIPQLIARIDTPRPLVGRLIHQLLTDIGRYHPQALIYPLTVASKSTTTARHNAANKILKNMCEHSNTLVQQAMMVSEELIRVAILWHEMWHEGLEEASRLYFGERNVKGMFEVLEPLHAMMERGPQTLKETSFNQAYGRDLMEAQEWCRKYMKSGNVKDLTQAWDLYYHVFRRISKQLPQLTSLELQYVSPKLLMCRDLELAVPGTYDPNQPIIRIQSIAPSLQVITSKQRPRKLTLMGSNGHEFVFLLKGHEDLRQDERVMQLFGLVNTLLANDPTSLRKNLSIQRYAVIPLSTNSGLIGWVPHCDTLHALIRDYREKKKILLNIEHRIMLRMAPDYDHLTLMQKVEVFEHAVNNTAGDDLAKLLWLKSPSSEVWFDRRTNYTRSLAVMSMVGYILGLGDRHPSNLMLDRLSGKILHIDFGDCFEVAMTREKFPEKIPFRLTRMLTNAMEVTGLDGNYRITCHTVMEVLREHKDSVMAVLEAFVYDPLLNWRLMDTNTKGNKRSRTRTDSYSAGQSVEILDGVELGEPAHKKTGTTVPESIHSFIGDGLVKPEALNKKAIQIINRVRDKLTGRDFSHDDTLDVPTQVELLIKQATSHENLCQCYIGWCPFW
Summary of the method: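 mTOR (0.5 nM) phosphorylates GFP-4EBP1 (400 nM) with 8 μM ATP at rt in 50 mM HEPES pH 7.5, 10 mM MnCl2, 50 mM NaCl, 1 mM EGTA, 1 mM DTT; compounds 0.003–10 μM final. EDTA stop with Tb-anti-p4EBP1[pT46] antibody (0.5 nM); TR-FRET read after 15 min against no-enzyme and vehicle controls.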

[2] = tested on: PKB Ser473 phosphorylation in Rat1-myr-HA-p110 alpha cells; assay: Reverse protein array, PKB Ser473 phosphorylation in Rat1-myr-HA-p110 alpha cells; type: cell-based; details: Rattus norvegicus, 0.5 h, 30 minutes compound incubation, read-out: p-PKB/IC50_alpha

## COCCN(C)c1ccc(-n2c(=O)n(C)c3cnc4ccc(-c5cnc(N)c(C(F)(F)F)c5)cc4c32)c(C)n1 [Example 15.1, 8-(6-Amino-5-trifluoromethyl-pyridin-3-yl)-1-{6-[(2-methoxy-ethyl)-methyl-amino]-2-methyl-pyridin-3-yl}-3-methyl-1,3-dihydro-imidazo[4,5-c]quinolin-2-one]
[1]
  HT-Perm logPe pH6.8: −4
mTOR; read-out: EPK_mTOR/IC50
  IC50: 0.008 µM
[2]
  IC50: < 0.00457 µM

## CNc1ncc(-c2ccc3ncc4c(c3c2)n(-c2ccc(C)nc2C)c(=O)n4C)cn1 [Example 14.4, 1-(2,6-Dimethyl-pyridin-3-yl)-3-methyl-8-(2-methylamino-pyrimidin-5-yl)-1,3-dihydro-imidazo[4,5-c]quinolin-2-one]
[1]
  HT-Perm logPe pH6.8: −4.6
mTOR; read-out: EPK_mTOR/IC50
  IC50: 0.014 µM
[2]
  IC50: 0.0162 µM

## COc1ccc(-n2c(=O)n(C)c3cnc4ccc(-c5cnc(N(C)C)nc5)cc4c32)c(Cl)n1 [Example 18.3, 1-(2-Chloro-6-methoxy-pyridin-3-yl)-8-(2-dimethylamino-pyrimidin-5-yl)-3-methyl-1,3-dihydro-imidazo[4,5-c]quinolin-2-one]
[1]
  HT-Perm logPe pH6.8: −3.5
mTOR; read-out: EPK_mTOR/IC50
  IC50: 0.215 µM
[2]
  IC50: 0.0071 µM

## CCOc1cc(-c2ccc3ncc4c(c3c2)n(-c2cccnc2C)c(=O)n4C)cnc1C [Example 2.22, 8-(5-Ethoxy-6-methyl-pyridin-3-yl)-3-methyl-1-(2-methyl-pyridin-3-yl)-1,3-dihydro-imidazo[4,5-c]quinolin-2-one]
[1]
  HT-Perm logPe pH6.8: −3.7
mTOR; read-out: EPK_mTOR/IC50
  IC50: 0.08 µM
[2]
  IC50: 0.011 µM

## CCOc1ccc(-c2ccc3ncc4c(c3c2)n(-c2cccnc2OC)c(=O)n4C)cn1 [Example 1.5, 8-(6-Ethoxy-pyridin-3-yl)-1-(2-methoxy-pyridin-3-yl)-3-methyl-1,3-dihydro-imidazo[4,5-c]quinolin-2-one]
[1]
  HT-perm/logPe pH6.8: −3.6
mTOR; read-out: mTOR/IC50
  IC50: 0.107 µM
[2]
  IC50: 0.00935 µM

## Cc1cc(F)ncc1-n1c(=O)n(C)c2cnc3ccc(-c4cnc5c(ccn5C)c4)cc3c21 [Example 16.5, 1-(6-Fluoro-4-methyl-pyridin-3-yl)-3-methyl-8-(1-methyl-1H-pyrrolo[2,3-b]pyridin-5-yl)-1,3-dihydro-imidazo[4,5-c]quinolin-2-one]
[1]
  HT-Perm logPe pH6.8: −3.7
mTOR; read-out: EPK_mTOR/IC50
  IC50: 0.622 µM
[2]
  IC50: 0.0184 µM

## CCN(C)c1ccc(-n2c(=O)n(C)c3cnc4ccc(-c5ccc(NC)nc5)cc4c32)c(C)n1 [Example 12.1, 1-[6-(Ethyl-methyl-amino)-2-methyl-pyridin-3-yl]-3-methyl-8-(6-methylamino-pyridin-3-yl)-1,3-dihydro-imidazo[4,5-c]quinolin-2-one]
[1]
  HT-Perm logPe pH6.8: −4.1
mTOR; read-out: EPK_mTOR/IC50
  IC50: 0.01 µM
[2]
  IC50: 0.0052 µM

## COc1ccc(-n2c(=O)n(C)c3cnc4ccc(-c5ccc6nccn6c5)cc4c32)c(OC)n1 [Example 8.10, 1-(2,6-Dimethoxy-pyridin-3-yl)-8-imidazo[1,2-a]pyridin-6-yl-3-methyl-1,3-dihydro-imidazo[4,5-c]quinolin-2-one]
[1]
  HT-Perm logPe pH6.8: −3.9
mTOR; read-out: EPK_mTOR/IC50
  IC50: 0.47 µM
[2]
  IC50: 0.0205 µM

## Cc1ncccc1-n1c(=O)n(C)c2cnc3ccc(-c4cnc5c(ccn5C)c4)cc3c21 [Example 2.14, 3-Methyl-1-(2-methyl-pyridin-3-yl)-8-(1-methyl-1H-pyrrolo[2,3-b]pyridin-5-yl)-1,3-dihydro-imidazo[4,5-c]quinolin-2-one]
[1]
  HT-perm/logPe pH6.8: −3.9
mTOR; read-out: mTOR/IC50
  IC50: 0.024 µM
[2]
  IC50: 0.00738 µM

## CCNc1cc(-c2ccc3ncc4c(c3c2)n(-c2ccc(N(C)CC)nc2C)c(=O)n4C)cnc1C [Example 12.2, 8-(5-Ethylamino-6-methyl-pyridin-3-yl)-1-[6-(ethyl-methyl-amino)-2-methyl-pyridin-3-yl]-3-methyl-1,3-dihydro-imidazo[4,5-c]quinolin-2-one]
[1]
  HT-Perm logPe pH6.8: −4
mTOR; read-out: EPK_mTOR/IC50
  IC50: 0.007 µM
[2]
  IC50: < 0.00457 µM

## Cc1ccc(-n2c(=O)n(C)c3cnc4ccc(-c5cnc6c(ccn6C)c5)cc4c32)c(C)n1 [Example 14.7, 1-(2,6-Dimethyl-pyridin-3-yl)-3-methyl-8-(1-methyl-1H-pyrrolo[2,3-b]pyridin-5-yl)-1,3-dihydro-imidazo[4,5-c]quinolin-2-one]
[1]
  HT-Perm logPe pH6.8: −4.3
mTOR; read-out: EPK_mTOR/IC50
  IC50: 0.013 µM
[2]
  IC50: 0.0115 µM

Source: patent US20100311714A1, “1H-IMIDAZO[4,5-c]QUINOLINONE COMPOUNDS” (priority 2009, published 2010)
